Experimental data as given in ChEMBL document CHEMBL1201862, “PubChem BioAssay data set” (2004).
Calls of active or inactive are those of the source.

What was measured:
[1] = target: Sphingosine 1-phosphate receptor 2 (Homo sapiens, UniProt O95136); test: Dose Response Cell Based Assay for Agonists of the S1P2 Receptor of Purchased Analogues. [Related pubchem assays: 729, 843, 854, 736 ]; format: functional
[2] = target: T1, Cytochrome P450 2D6 (Homo sapiens, UniProt P10635); test: qHTS Assay for Inhibitors and Substrates of Cytochrome P450 2D6. [Related pubchem assays: 410 ]; format: ADME; settings: read-out: Potency
[3] = tested on: Vero; test: host cell viability loss, Vero E6 – synthesized analogs, cytotoxicity control for West Nile virus antiviral project, SAR follow-up (AID 2244); format: functional; settings: Chlorocebus sabaeus
[4] = tested on: Vero; test: Vero 76 cell viability after compound exposure – Vero 76 cells, synthesized analogs, cytotoxicity control for West Nile virus antiviral project, SAR follow-up (AID 2414); format: functional; settings: Chlorocebus sabaeus
[5] = tested on: Vero; test: Vero cell viability after compound exposure – synthesized analogs, set II, cytotoxicity control for West Nile virus antiviral project, SAR follow-up (AID 2402); format: functional; settings: Chlorocebus sabaeus
[6] = antiviral protection against BTV-induced cell death – arbovirus, BSR cells, confirmation (AID 1250); format: functional;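 note: protection from viral cytopathic effect measured as cell viability by ATP luminescence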
[7] = tested on: HEK293; test: NOD2 signaling inhibitors in MDP-stimulated cells, cell-based, uHTS, luminescence (AID 2001); format: functional; settings: Homo sapiens
[8] = tested on: HEK293; test: cells; format: functional, cell-based; settings: Homo sapiens
[9] = tested on: HEK293; test: inhibition of NOD1-driven NF-kB reporter – cell-based, luminescence, uHTS, primary screen (AID 1578); format: functional; settings: Homo sapiens
[10] = tested on: HEK293; test: cells; format: functional, cell-based; settings: Homo sapiens; remark: listed apart in the source
[11] = target: Voltage-gated inwardly rectifying potassium channel KCNH2 (Homo sapiens, UniProt Q12809); test: concentration-dependent hERG rescue from blockers – cell-based, thallium flux, dose response (AID 2121); format: ADME
[12] = target: T2, Bcl-2-like protein 10 (Homo sapiens, UniProt Q9HD36); test: Bcl-B/TR3 peptide binding disruption – biochemical, fluorescence polarization, FITC-TR3 peptide, selectivity assay for Bfl-1 inhibitor project, primary screen (AID 748);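 note: fluorescence polarization from a fluorescein-labelled TR3 peptide binding purified Bcl-B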
T2 sequence (Q9HD36 whole entry): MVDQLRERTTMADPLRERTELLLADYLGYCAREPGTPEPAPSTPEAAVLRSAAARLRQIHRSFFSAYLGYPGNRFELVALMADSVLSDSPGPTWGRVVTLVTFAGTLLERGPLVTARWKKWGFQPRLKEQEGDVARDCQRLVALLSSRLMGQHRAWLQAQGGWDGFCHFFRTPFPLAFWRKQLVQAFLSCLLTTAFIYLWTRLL

[13] = target: T1, Cytochrome P450 2D6
[14] = tested on: Vero; test: viability of Vero cells under compound – cytotoxicity control for flavivirus capping enzyme inhibitors (AID 588742); format: functional; settings: Chlorocebus sabaeus
[15] = target: T3, Estrogen receptor (Homo sapiens, UniProt P03372); test: ERα coactivator recruitment enhancers – biochemical, TR-FRET, ERα LBD, dose response (AID 737)
T3 sequence (P03372 whole entry): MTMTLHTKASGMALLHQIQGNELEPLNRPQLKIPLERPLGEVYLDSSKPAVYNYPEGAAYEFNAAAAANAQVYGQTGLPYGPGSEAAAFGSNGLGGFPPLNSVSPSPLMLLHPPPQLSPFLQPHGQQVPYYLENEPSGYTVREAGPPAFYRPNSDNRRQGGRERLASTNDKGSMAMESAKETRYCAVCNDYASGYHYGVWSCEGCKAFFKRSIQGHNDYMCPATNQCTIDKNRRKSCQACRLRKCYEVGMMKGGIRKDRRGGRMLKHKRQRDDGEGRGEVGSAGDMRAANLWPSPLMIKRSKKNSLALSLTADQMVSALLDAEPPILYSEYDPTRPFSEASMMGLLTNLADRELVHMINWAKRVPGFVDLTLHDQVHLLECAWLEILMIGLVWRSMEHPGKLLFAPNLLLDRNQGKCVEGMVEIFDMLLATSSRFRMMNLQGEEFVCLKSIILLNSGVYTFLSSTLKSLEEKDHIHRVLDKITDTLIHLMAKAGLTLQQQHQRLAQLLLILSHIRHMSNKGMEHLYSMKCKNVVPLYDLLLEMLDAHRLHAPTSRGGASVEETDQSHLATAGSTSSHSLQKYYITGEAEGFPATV

[16] = HPDE-C7 pancreatic duct cell viability loss – fluorescence, HTS (AID 430); format: functional, cell-based; settings: Homo sapiens
[17] = viability loss of HPDE-C7K cells – cell-based, fluorescence, HTS, primary screen (AID 431); format: functional; settings: Homo sapiens
[18] = target: Cytochrome P450 2C19 (Homo sapiens, UniProt P33261); test: Cytochrome panel assay with activity outcomes. Panel member name: p450-cyp2c19 Compounds with AC50 equal or less than 10 uM are considered active; format: functional; settings: read-out: AC50
[19] = target: T4, Cytochrome P450 2C9 (Homo sapiens, UniProt P11712)
[20] = target: T4, Cytochrome P450 2C9; settings: Potency

T1 sequence (P10635 whole entry): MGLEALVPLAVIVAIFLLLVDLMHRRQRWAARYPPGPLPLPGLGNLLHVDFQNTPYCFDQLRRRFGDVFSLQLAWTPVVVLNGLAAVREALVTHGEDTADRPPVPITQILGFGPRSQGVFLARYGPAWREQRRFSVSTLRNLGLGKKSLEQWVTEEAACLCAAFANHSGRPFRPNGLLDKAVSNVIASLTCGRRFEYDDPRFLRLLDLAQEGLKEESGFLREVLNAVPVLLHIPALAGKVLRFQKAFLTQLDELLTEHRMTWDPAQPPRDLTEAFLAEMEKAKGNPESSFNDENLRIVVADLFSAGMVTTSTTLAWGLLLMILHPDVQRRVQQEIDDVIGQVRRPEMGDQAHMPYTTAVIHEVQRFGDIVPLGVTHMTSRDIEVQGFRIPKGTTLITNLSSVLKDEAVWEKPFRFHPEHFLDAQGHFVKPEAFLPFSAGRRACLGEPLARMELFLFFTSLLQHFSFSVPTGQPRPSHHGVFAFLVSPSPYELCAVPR
T4 sequence (P11712 whole entry): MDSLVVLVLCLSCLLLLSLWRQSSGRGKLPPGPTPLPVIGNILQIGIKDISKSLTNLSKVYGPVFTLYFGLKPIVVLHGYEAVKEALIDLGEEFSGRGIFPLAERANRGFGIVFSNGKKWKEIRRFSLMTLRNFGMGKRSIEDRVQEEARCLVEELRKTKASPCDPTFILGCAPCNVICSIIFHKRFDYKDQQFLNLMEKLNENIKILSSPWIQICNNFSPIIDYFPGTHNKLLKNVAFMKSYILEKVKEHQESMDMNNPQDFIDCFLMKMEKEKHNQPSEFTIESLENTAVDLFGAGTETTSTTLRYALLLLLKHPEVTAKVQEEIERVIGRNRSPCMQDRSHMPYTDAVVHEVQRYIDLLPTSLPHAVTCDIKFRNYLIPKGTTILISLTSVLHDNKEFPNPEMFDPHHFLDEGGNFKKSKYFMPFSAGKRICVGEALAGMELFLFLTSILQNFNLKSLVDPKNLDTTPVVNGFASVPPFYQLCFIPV
Sequence of Voltage-gated inwardly rectifying potassium channel KCNH2 (Q12809 whole entry): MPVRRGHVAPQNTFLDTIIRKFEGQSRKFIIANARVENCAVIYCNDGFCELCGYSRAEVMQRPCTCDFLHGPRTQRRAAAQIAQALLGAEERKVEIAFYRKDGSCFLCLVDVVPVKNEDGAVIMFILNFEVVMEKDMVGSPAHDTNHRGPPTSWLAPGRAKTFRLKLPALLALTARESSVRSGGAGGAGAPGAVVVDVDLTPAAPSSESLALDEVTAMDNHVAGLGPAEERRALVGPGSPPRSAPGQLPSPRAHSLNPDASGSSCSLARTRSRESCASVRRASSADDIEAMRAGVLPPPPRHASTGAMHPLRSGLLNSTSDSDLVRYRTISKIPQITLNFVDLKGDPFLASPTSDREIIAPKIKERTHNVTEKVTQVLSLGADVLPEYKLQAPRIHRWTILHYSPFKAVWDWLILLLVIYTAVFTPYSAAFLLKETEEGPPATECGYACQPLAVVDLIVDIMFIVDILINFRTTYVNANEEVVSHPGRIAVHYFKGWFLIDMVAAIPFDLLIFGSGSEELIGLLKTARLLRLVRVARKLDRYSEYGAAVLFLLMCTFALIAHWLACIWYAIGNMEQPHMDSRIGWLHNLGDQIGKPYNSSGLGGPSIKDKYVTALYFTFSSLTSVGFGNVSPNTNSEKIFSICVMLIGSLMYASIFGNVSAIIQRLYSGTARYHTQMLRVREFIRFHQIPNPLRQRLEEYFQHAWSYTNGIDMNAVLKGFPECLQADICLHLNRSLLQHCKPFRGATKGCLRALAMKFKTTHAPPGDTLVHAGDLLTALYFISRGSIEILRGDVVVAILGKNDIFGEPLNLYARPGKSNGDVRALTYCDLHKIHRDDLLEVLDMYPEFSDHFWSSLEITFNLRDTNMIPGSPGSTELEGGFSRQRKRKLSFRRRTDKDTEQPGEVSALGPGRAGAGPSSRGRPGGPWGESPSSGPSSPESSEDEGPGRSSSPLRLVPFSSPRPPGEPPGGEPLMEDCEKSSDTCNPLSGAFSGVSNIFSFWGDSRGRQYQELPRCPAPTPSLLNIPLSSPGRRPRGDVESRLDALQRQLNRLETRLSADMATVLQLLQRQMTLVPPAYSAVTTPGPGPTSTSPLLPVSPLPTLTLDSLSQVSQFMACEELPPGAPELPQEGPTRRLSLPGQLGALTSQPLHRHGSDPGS
Sequence of Sphingosine 1-phosphate receptor 2 (O95136 whole entry): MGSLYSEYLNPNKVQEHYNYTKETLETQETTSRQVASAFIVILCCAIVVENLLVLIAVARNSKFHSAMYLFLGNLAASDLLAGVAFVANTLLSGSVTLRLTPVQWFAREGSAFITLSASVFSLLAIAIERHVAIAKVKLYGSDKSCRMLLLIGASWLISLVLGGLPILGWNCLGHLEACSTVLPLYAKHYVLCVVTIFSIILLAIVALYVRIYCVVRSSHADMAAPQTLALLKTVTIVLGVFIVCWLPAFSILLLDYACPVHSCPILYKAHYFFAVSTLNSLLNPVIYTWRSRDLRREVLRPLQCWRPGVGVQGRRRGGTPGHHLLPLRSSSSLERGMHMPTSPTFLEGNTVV
Sequence of Cytochrome P450 2C19 (P33261 whole entry): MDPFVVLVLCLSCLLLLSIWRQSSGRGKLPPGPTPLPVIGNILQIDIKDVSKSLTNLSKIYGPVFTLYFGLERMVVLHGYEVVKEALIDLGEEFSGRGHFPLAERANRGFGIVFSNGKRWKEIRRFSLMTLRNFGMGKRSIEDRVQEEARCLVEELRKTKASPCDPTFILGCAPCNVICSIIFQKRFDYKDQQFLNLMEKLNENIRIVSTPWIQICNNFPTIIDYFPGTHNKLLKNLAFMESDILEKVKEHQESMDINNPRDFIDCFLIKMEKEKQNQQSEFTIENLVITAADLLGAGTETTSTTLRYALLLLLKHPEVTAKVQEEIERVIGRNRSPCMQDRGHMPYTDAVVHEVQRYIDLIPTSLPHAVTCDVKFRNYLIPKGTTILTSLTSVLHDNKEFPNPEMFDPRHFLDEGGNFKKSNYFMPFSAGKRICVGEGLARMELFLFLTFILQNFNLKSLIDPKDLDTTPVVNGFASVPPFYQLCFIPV

Question: Which EC50 [1] does the source give for Cc1cc(C(=O)CN2CCN(C(=O)c3ccco3)CC2)c(C)n1Cc1ccccc1 here?
Answer: > 30 µM (not active)

Question: With O=C1c2ccccc2C(O)(O)[C@@]1(O)[C@]1(O)C(=O)c2ccccc2C1(O)O as the compound, how does the AC50 [2] read?
Answer: 7.94 µM (inconclusive)

Question: Which CC50 [3] does the source give for O=C(CSc1nc2ccccc2c(=O)n1-c1ccc(F)cc1)Nc1cccc2ccccc12 here?
Answer: > 40 µM (active)

Question: What about the CC50 [4] of the same compound?
Answer: > 66.6 µM (active)

Question: What about the CC50 [5] of the same compound?
Answer: > 100 µM (active)

Question: With CC(CCc1ccccc1)NC(=O)c1cc2sccc2n1C (stereo unspecified) as the compound, how does the IC50 [6] read?
Answer: > 100 µM (active)

Question: With CSC(=S)N/N=C/c1ccc(Br)cc1 as the compound, how does the IC50 [7] read?
Answer: 14.2 µM (inactive)

Question: What about the IC50 [8] of the same compound?
Answer: > 20 µM (inactive)

Question: What about the EC50 [9] of the same compound?
Answer: > 20 µM (inactive)

Question: What about the IC50 [10] of the same compound?
Answer: > 20 µM (inactive)

Question: And the EC50 [11]?
Answer: 0.3 µM (active)

Question: Which IC50 [12] does the source give for CC(=O)c1c(CC(=O)O)[nH]n(-c2nc3ccccc3s2)c1=O here?
Answer: 71.2 µM (inactive)

Question: For COc1ccc(C[C@H]2c3cc(OC)c(OC)cc3CCN2C)cc1OC, which AC50 [2] is on record?
Answer: 12.6 µM (inconclusive)

Question: And the AC50 [13]?
Answer: 6.31 µM (inconclusive)

Question: Which CC50 [14] does the source give for CCC(=O)Oc1ccc(/C(CC)=C(\CC)c2ccc(OC(=O)CC)cc2)cc1 [DIETHYLSTILBESTROL DIPROPIONATE] here?
Answer: > 40 µM (active)

Question: What about the EC50 [15] of the same compound?
Answer: 18.1 µM (active)

Question: What about the EC50 [16] of the same compound?
Answer: 4.6 µM (active)

Question: What about the EC50 [17] of the same compound?
Answer: 3.87 µM (active)

Question: Which results are given for CC(C)C(=O)Nc1ccc([N+](=O)[O-])c(C(F)(F)F)c1 [FLUTAMIDE]?
Answer: AC50 [18]: 10 µM (inconclusive); AC50 [19]: 12.6 µM (inconclusive); AC50 [20]: 39.8 µM (inconclusive)
